Experimental data reported in article PMC9211397, “High-Throughput Screening Platform To Identify Inhibitors of Protein Synthesis with Potential for the Treatment of Malaria” (Antimicrobial Agents and Chemotherapy, 2022).

Columns and labels:
[1] = biological target: P. falciparum translation (P. falciparum lysate); experiment: P. falciparum in vitro translation (PfIVT) assay, lysate-based, luciferase reporter; format: biochemical, Plasmodium falciparum; settings: established inhibitors of protein translation; read-out: IC50 values, µM PfIVT (Table S1)
Source text: (§1) Our P. falciparum in vitro translation (PfIVT) assay is built upon previously established assays ([14], [17]) and is summarized in Fig. 1A. In this assay, successful reconstitution of Plasmodium protein translation is reported via synthesis of a luciferase reporter. For PfIVT, two independent untranslated regions (UTRs), previously shown to promote strong levels of translation ([17]), were introduced upstream and downstream of the luciferase. The 5′ UTR from P. falciparum histidine-rich protein 3 (PfHrp3) ([18]) was introduced upstream of the reporter gene, and the 3′ UTR from P. falciparum histidine-rich protein 2 (PfHrp2) gene ([19]) was introduced downstream. For the reporter construct to support our complementary human IVT assay (HsIVT), the 5′ UTR was replaced with an internal ribosome entry site (IRES) from encephalomyocarditis virus (EMCV) ([20]) and the 3′ UTR was replaced with a poly(A) tail ([21]). […] Finally, a 30-bp poly(A) tail, present within the vector and downstream of the luciferase gene, was inserted to enhance mRNA stability ([21]).
(§2) Translationally active P. falciparum or human embryonic kidney (HEK) 293F lysates were supplemented with accessory, helper, amino acid, and energy regeneration solutions (see Materials and Methods for details). In vitro translation reactions were initiated by the addition of purified mRNA to each reaction well. Using this basic assay format, a number of parameters were assessed and optimized, namely, assay temperature, time, mRNA concentration, and reaction volume (summarized in Fig. S2 in the supplemental material). In addition, we compared the luminescence signal of the CBG firefly luciferase with CBG99, derived from the click beetle […] ([18]).
3D7 parasites were synchronized following two rounds of treatment with D-sorbitol (5%), as previously described ([40]). The hematocrit was reduced from 5% (for standard culture) to 1.5 to 2% and cultures were transferred into HYPERflasks (Corning). Fresh medium was added once or twice daily. […] Harvested red blood cells (infected) were lysed by incubation in 0.1% (wt/vol) saponin on ice for 10 min with gentle agitation. Free parasites were harvested by centrifugation (2,800 × g, 10 min, 4°C) and washed 3 times in wash buffer (WB; 100 mM potassium acetate, 2.5 mM magnesium acetate, 45 mM HEPES [pH 7.4], 250 mM sucrose, 2 mM dithiothreitol, and 15 μM leupeptin) to remove lysed red blood cell debris. The resulting pellet was resuspended in 1 volume of WB supplemented with cOmplete EDTA-free protease inhibitor cocktail (Roche; 1 tablet/20 mL) and human RNase A inhibitor (Sigma; 5 U/mL). Parasite lysis was achieved by nitrogen cavitation using a prechilled 45-mL Parr cell disruption vessel (1,500 lb/in^2, 60 min, 4°C). To clarify the lysate, it was centrifuged (10,000 × g, 15 min, 4°C), and the supernatant was collected, transferred into fresh tubes, and centrifuged (30,000 × g, 15 min, 4°C). As a quality assurance step for each lysate, the RNA content of the resulting supernatant was determined using a NanoDrop spectrophotometer (Shimadzu). Supernatants with RNA levels of >250 ng/μL were aliquoted (100 μL), flash frozen in liquid nitrogen, and stored at −80°C.

[2] = tested on: asexual-blood-stage (ABS) P. falciparum; experiment: SYBR green-based P. falciparum asexual growth inhibition assay; format: cell-based; settings: Plasmodium falciparum; established inhibitors of protein translation; read-out: EC50 values, µM PfABS (Table S1)
Method: The Plasmodium falciparum reference strain 3D7 used throughout this study was cultured as previously described ([39]). Briefly, cultures incubated at 37°C in a humidified atmosphere of 1% O2 and 3% CO2 in balance with N2 were maintained in RPMI 1640 media supplemented with 5% A^+ human red blood cells (provided by the Scottish National Blood Transfusion Service), 25 mM HEPES, 2 mM L-glutamine, 0.5% AlbuMAX II (Gibco), 12 mM sodium bicarbonate, 0.2 mM hypoxanthine, and 20 mg/L gentamicin (pH 7.3).
Our SYBR green asexual-growth assay was based on a previous report ([45]). In brief, 96-well black clear-bottom plates (Corning) were preprinted with a compound and normalized with DMSO to 0.5% of a total assay volume of 100 μL. Highly synchronized ring-stage parasites and blood were added to a 2% final parasitemia and 1% hematocrit. The compounds were incubated with parasites for 72 h prior to freezing at −20°C (to aid cell lysis). The plate was thawed on ice and lysis buffer (20 mM Tris pH 7.5, 5 mM EDTA, 0.008% [w/v] saponin, […]) containing SYBR green I (Thermo Fisher Scientific) at a final concentration of 0.02% (v/v) was added. The 96-well plate was equilibrated to room temperature for 1 h before fluorescence was determined on a TECAN Infinite Pro 200 microplate reader using green fluorescent protein (GFP) filters (excitation, 485 nm; emission, 535 nm). Data were fitted to a two-parameter equation using GraFit version 7.0 (Erithacus Software), and EC50 values were calculated. An excess of the standard inhibitor mefloquine (10 μM) was used to define 0% parasite growth.

[3] = tested on: human translation (HEK 293F lysate); experiment: Human in vitro translation (HsIVT) assay, HEK 293F lysate, luciferase reporter; format: biochemical; settings: for effect on translation in the HsIVT assay (Fig. S3A): 10 µM, three technical replicates; for IC50: weighted mean ± SD from at least two biological replicates, read-out: IC50 in the HsIVT assay (Fig. S3B)
Source text: as §1, §2
FreeStyle human embryonic kidney (HEK) 293F cells (Thermo Fisher Scientific) were grown in 500-mL polycarbonate Erlenmeyer vented flasks (Corning) containing FreeStyle 293 expression medium (Life Technologies) upon reaching a density of approximately 2 × 10^6. Cells were then centrifuged at 1,000 × g for 10 min at 4°C, the medium was discarded, and the resulting pellet was washed once in buffer II containing 20 U of human placental RNase inhibitor (Sigma-Aldrich) and cOmplete EDTA-free inhibitor cocktail (Roche) before being centrifuged at 2,800 × g for 10 min. Clarified HEK cell lysate was obtained in the same way as described for P. falciparum lysate.
PfIVT and HsIVT reactions (5 μL final volume) were performed in 384-well plates (Corning) containing 50% lysate from cells (either P. falciparum or HEK 293F), 10% amino acid solution (final concentration of 400 μM for each amino acid in 60 mM KOH; biotechrabbit), 10% energy recovery solution (final assay concentrations of 40 mM HEPES [pH 7.4], 1.5 mM ATP, 0.15 mM GTP, […] creatine phosphate, and 40 U/mL creatine phosphokinase), 10% helper solution (final assay concentrations of 200 μM cystine, 2% polyethylene glycol 3000 [PEG 3000], 1 mM spermidine, 0.5 mM folinic acid, and 15 μM leupeptin), 10% supplemental salt solution (22.5 mM HEPES [pH 7.4], 50 mM potassium acetate, 1 mM magnesium acetate, 1 mM DTT, 1 U/mL human placental RNase inhibitor, 0.1 mM leupeptin), and 10% cbg99 luciferase mRNA (3,000 ng/mL). A master mix solution containing all components was prepared on ice prior to assays, and 5 μL was dispensed into wells using an automated Integra VIAFLO 16-channel 12.5-μL pipette.

`O=C(NCCN1CCCC1)c1cc(-c2ccc(CN3CCOCC3)cc2)nc2ccc(F)cc12` [DDD107498/M5717, reference compound] was tested, and the IC50 [1] was 0.1 µM, the EC50 [2] was 0.0008 µM and the “effect on translation in the HsIVT assay (Fig. S3A)” value (“effect on translation” for short) [3] was “little or no effect”.
`CC[C@H]1CN2CCc3cc(OC)c(OC)cc3[C@@H]2C[C@@H]1C[C@H]1NCCc2cc(OC)c(OC)cc21` [Emetine, emetine, reference compound] was tested, and the IC50 [1] was 1.8 µM, the EC50 [2] was 0.03 µM and the “inhibition of translation in HsIVT assay (validation)” value [3] was “successfully inhibit translation”. The “effect on translation” value [3] was “ablated activity” and the IC50 [3] was 800 ± 100 nM.
`O=C(CC1NCCCC1O)Cn1cnc2cc(Br)c(Cl)cc2c1=O` (stereo not shown) [Halofuginone, halofuginone, reference compound] was tested, and the IC50 [1] was 0.3 µM, the EC50 [2] was 0.0004 µM and the “inhibition of translation in HsIVT assay (validation)” value [3] was “successfully inhibit translation”. The “effect on translation” value [3] was “ablated activity” and the IC50 [3] was 1700 ± 40 nM.
